This experiment can be described thus: Organoleptic properties (taste profile) of the amides. The source says: More specifically, examples of the organoleptic properties for the dienalkylamides of our invention are as follows: […]
Setting [1] is: Formula II compounds, at 10 ppm.

With `CC(C)=CCC/C(C)=C\CNC(=O)C(C)C`, under “Formula II compounds”, the Taste profile entry was “Salt enhancement, MSG enhancement, Umami, brothy, sweet end profile”.

With `CC(C)=CCC/C(C)=C\CNC(=O)C1CC1`, the Taste profile entry (Formula II compounds) is on record as “Salty, MSG, Umami, brothy, mouthfeel, sweetness”.

With `CCCCC/C=C\CC/C=C/CNC(=O)C1CC1`, for the setting “Formula I compounds”, the Taste profile result is reported as “Oily, moderate umami”.

With `CC(C)=CCC/C(C)=C/CNC(=O)C1CC1`, the Taste profile result (Formula II compounds) is on record as “Salt, MSG, Umami, mouthfeel, lasting sweetness”.

Regarding `CC/C=C\CC/C=C/CNC(=O)C1CC1`, where the note is “Formula I compounds”, the Taste profile entry is “Moderate Umami, off fish oily character”.

As for `CC(C)=CCC/C(C)=C/CNC(=O)C(C)C`, the Taste profile entry (Formula II compounds) was “Some salt enhancement, umami and strong MSG effect, sweet end profile”.

On to `C/C=C/C(=O)NC/C=C(\C)CCC=C(C)C`, for which the Taste profile entry (Formula II compounds) was “Moderate umami, salt like, lemon character”.

For `CC/C=C\CC/C=C(\C)CNC(C)=O`, the Taste profile entry (Formula I compounds, at 10 ppm) is listed as “Potent warming at 10 ppm”.

Consider `CC(C)=CCC/C(C)=C/CNC(=O)C=C(C)C`, for which the Taste profile entry under setting [1] is given as “Clean, weak umami effect at 10 ppm”.

As to `C/C=C/C(=O)NC/C=C(/C)CCC=C(C)C`, the Taste profile result (Formula II compounds) is recorded as “Moderate umami, some saltiness”.

With `CC(C)=CCC/C(C)=C\CNC(=O)C=C(C)C`, under setting [1], the Taste profile entry was “Clean, weak umami effect at 10 ppm”.

(Values after patent publication US20060068071A1, “Saturated and unsaturated N-alkamides exhibiting taste and flavor enhancement effect in flavor compositions” (priority 2004, published 2006).)
